Source: article PMC4809498, “Artonin E Induces Apoptosis via Mitochondrial Dysregulation in SKOV-3 Ovarian Cancer Cells” (PLoS ONE, 2016)
Values after ≈ are worked out from the molar mass of the structure shown.

Legend:
[1] = tested on: survivin; assay: Western blot, survivin; assay type: cell-based, human; conditions: SKOV-3, 8 μg/mL, 72 h after treatment
Method: SKOV-3 cells were plated in a 75cm^2 culture flask and exposed to artonin E for 24, 48, and 72 h. Lysis buffer (50 mM Tris–HCl, pH 8.0; 120 mM NaCl, 0.5% NP-40; and 1 mM PMSF) was used to extract the total protein. Protein concentration was determined using a BCA protein assay reagent kit (Bio-Rad, USA). Equal amounts of protein (40 μg) extract were subjected to SDS-PAGE and electroblotted onto a polyvinylidenedifluoride membrane (Bio-Rad). Blots were then blocked with 5% non-fat milk in TBS-Tween buffer 7 (0.12 M Tris-base, 1.5 M NaCl, and 0.1% Tween 20) for 1 h at room temperature. After incubating with the appropriate primary antibody overnight at 4°C, the blots were washed and then incubated with horseradish peroxidase conjugated secondary antibody for 1 h at room temperature. The protein bands were detected using pico or femto chemiluminescence (ECL system) and visualized using a UV gel documentation system. The subsequent primary antibodies, which include those for β-actin (1:10,000), Bax (1:10,000), Bcl-2 (1:10,000), HSP-70 (1:10,000), survivin (1:10,000),caspase -3 (1:10,000), caspase -8 (1:10,000), caspase -9 (1;10,000) and cytochrome c (1:200) were purchased from Abcam, Cambridge, United Kingdom.

[2] = tested on: SKOV-3 cells; assay: Intracellular ROS generation (DCFH-DA); assay type: cell-based, human; conditions: SKOV-3, 8 μg/mL
Method: 2′,7′-Dichlorofluorescin diacetate (DCFH-DA) was used to examine the production of intracellular reactive oxygen species in SKOV-3 cells treated with artonin E. The SKOV-3 cells were seeded in the 96-well black plate and incubated overnight to attach. The cells were then treated with 8 μg/mL of artonin E for 24, 48, and 72 h. Hank’s balanced salt solution without serum was used to wash the cells. Then, 100 μL of DCFH-DA solution was added to each designated well, and the plate was incubated at 37°C for 30 min. The results were analyzed using a fluorescence microplate reader (Tecan Infinite M 200 PRO, Männedorf, Switzerland) at 485 nm excitation and 520 nm emission.

[3] = tested on: SKOV-3 cells; assay: Multiparametric Cytotoxicity 3 high-content screening; assay type: cell-based, human; conditions: SKOV-3, 8 μg/mL
Method: Cellomics Multiparameter Cytotoxicity 3 kit (Thermo Scientific^TM, Pittsburgh, PA, USA) was used to perform simultaneous detection of the crucial apoptotic events in SKOV-3 cells treated with artonin E. Briefly, SKOV-3 cells were seeded at a density of 5000 cells/well in a black flat-bottomed 96-well plates (PerkinElmer, Inc., Wellsley, MA, USA) and left overnight to attach. The attached cells were treated with 8 μg/mL artonin E for 24, 48, and 72 h. The treated cells were then exposed to 50 μL of live cell staining solution for 30 min. The excess medium and live cell staining solution were gently removed and the cells were then fixed with 16% paraformaldehyde. After fixation, the cells were exposed with permeabilization buffer followed by blocking buffer for 15 min at room temperature. Primary Cytochrome C antibodies and secondary DyLight 649 conjugated goat antimouse IgG were added and allowed to interact for 1 h each. Hoechst 33342 dye was used to stain nuclei in SKOV-3 cells. Stained SKOV-3 cells in the 96-well plates were analyzed using ArrayScan high-content screening (HCS) system. All experiments were conducted in triplicates and experiments were repeated twice.

[4] = tested on: caspase-8; assay: Colorimetric caspase-8 activation assay; assay type: cell-based, human; conditions: SKOV-3, 8 μg/mL, 48 and 72 h treatment
Method: (§1) Calorimetric assay of the activation of caspases-3, -8, and -9 was conducted using R & D system kit, USA. Briefly, in a T75cm^2 flask 90% confluent SKOV-3 cells were induced with artonin E for 24, 48, and 72 h. The induced cells were trypsinized and centrifuged at 1,800 rpm for 10 min. The fresh pellets were washed with cold PBS and immediately lysed with protein lysis buffer. The cell lysate was then kept on ice for 10 min, centrifuged at 10,000 g for 15 min, and transferred into a new tube. The fresh cell lysate (50 μL), which contained 100–200 μg of protein, was added into a 96-well plate in triplicate. Fifty microliters of reaction buffer and 5 μL of caspase were then transferred into each designated well before incubating the plate in a CO2 incubator at 37°C for 2 h. A microplate reader (Tecan Infinite M 200 PRO, Männedorf, Switzerland) was used for analysis at a wavelength of 405 nm.

[5] = tested on: caspase-9; assay: Colorimetric caspase-9 activation assay; assay type: cell-based, human; conditions: SKOV-3, 8 μg/mL, from 24 h, prolonged exposure
Method: as §1

[6] = tested on: Human periodontal ligament fibroblasts; assay: MTT cell viability assay, periodontal fibroblasts; assay type: cell-based; conditions: Human periodontal fibroblast, 24 h treatment
Method: Metastatic ovarian adenocarcinoma (SKOV-3) and normal Chinese hamster ovary (CHO) cell lines were originally obtained from the American Type Culture Collection (ATCC; Manassas, VA). SKOV-3 cells were cultured in McCoy’s 5A medium and CHO cells were cultured in F12K medium. A human periodontal ligament fibroblast cell line was purchased from Lonza, USA and maintained in stroma cell basal medium. T1074 (normal immortalized human ovarian surface epithelial cell line) was originally purchased from Applied Biological Materials (abm®) Canada and cultured in Prigrow 1 medium.
The inhibitory effects of artonin E and two positive controls paclitaxel and carboplatin were examined by MTT assay. Cells at a density of 5×10^3cells/well were placed in a 96-well plate and left for 24 h to attach. The attached cells were exposed to artonin E, paclitaxel, and carboplatin at different concentrations and incubated for 24, 48, and 72 h. Subsequently, 20 μL of 5 mg/mL MTT solution was added after drug treatment and the resulting mixture was incubated for 4 h to form purple formazan. Afterward, 100 μL of dimethyl sulfoxide (DMSO) was transferred into each well to dissolve the purple formazan, and results were measured using a microplate reader (Tecan Infinite M 200 PRO, Männedorf, Switzerland) at an absorbance of 570 nm. […]

[7] = tested on: SKOV-3 cells; assay: Cell cycle analysis by flow cytometry; assay type: cell-based, human; conditions: SKOV-3, 8 μg/mL, 72 h after treatment
Method: SKOV-3 cells at a concentration of 5×10^5 cells were plated into a T75cm^2 flask and incubated overnight to allow attachment. The attached cells were treated with 8 μg/mL of artonin E at different time points. After treatment, the cells were trypsinized and centrifuged at 1,500 rpm for 10 min. The fresh pellets were washed twice with PBS, fixed with 500 μL of 70% cold ethanol, and incubated at −20°C overnight. The remaining ethanol was then removed and the cells were resuspended in PBS containing 20 μL of RNase A (10 μg/mL) and 2 μL of PI (2.5 μg/mL). The resulting mixture was incubated for 30 min at 37°C in the dark. Samples were immediately analyzed using FACS Canto 11 Becton-Dickinson flow cytometry. For each sample, 10,000 cells were measured. ModFit LT software (Verity Software House, Topsham, ME) was used to analyze the percentage of cells at different phases.

activation of caspase-8 [4]: significantly (p<0.05)elevated
stimulation of caspase-9 [5]: increased significantly
SMILES: CC(C)=CCc1c(-c2cc(O)c(O)cc2O)oc2c3c(cc(O)c2c1=O)OC(C)(C)C=C3 [Artonin E, artonin E]
level of survivin expression [1]: reduced significantly
increase in the formation of ROS compared with untreated cells ([2]; 24 and 48 h after treatment): twofold
ROS induction ([2]; 72 h after treatment): slightly decreased
cytochrome c fluorescence intensities ([3]; prolonged treatment periods): increase
cell permeability ([3]; time-dependent (24, 48, 72 h)): marked increased
green fluorescence intensity of MMP ([3]; time-dependent (24, 48, 72 h)): significant (p<0.05) reduction
IC50 [6]: 67 ± 1 µg/mL (≈ 154 µM)
accumulation of cells arrested at the S phase [7]: significantly (p<0.05) increased
